Reference: US20110098177A1, “METHODS AND COMPOSITIONS OF PLANT MICRONUTRIENTS” (NOVUS INTERNATIONAL INC., priority 2006, published 2011)

Columns and labels:
Assay type in all cases: in vivo
Conditions in all cases: in vivo
Tygress tomato plants [1] = assay: Foliar nutrient concentration at 6 WAT, open-field tomato (Examples 7-10)
Procedure, shortened: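 Open-field Florida trial, spring 2008: transplants at 4-true-leaf stage on drip-irrigated raised beds were foliar-sprayed at 3 and 5 WAT (BIOX-CM at 4 and 5 WAT) at 60 gal/acre with non-ionic surfactant. Most recent mature leaves were sampled at 6 WAT. Tomato fruit was USDA-graded and analysed for minerals.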

Tygress tomato plants [2] = assay: Marketable yield, open-field tomato (Examples 7-10)
Procedure: (§1) The following experiments were performed in open-field plots during the spring of 2008 at GCREC, Balm, University of Florida. Four products delivering Zn (BIOX-Z), Mn (BIOX-M), Cu (BIOX-Cu), and Fe (BIOX-Fe) were compared to other micronutrient supplement formulations in tomato and bell pepper plants.
(§2) The plot sizes for the tomato plants were 30-ft plots (15 plants per plot) and 15-ft plots were used for the bell pepper plants (30 plants per plot). Crop set-up, procedures and variables were as follows.
(§3) Transplants of ‘Tygress’ tomato plants and ‘Patriot’ bell pepper plants in the 4-true leaf stage (about 6 inches tall) were planted in raised beds in open-field plots. The cross-section of each raised bed was 28 inches wide at the top, 32 inches wide at the base, and 8 inches tall. Irrigation and non-micronutrient fertilizer were provided daily through two drip lines per bed (0.45 gal/100 ft bed/min) at recommended rates for tomato and bell pepper production in Florida. […] The height of the plants for each of the treatment groups was measured at 3 weeks after transplantation (WAT), just prior to treatment with the experimental foliar fertilizers.
(§4) All foliar fertilizers except BIOX-CM were applied to the various treatment groups at 3 weeks after transplantation (WAT) and again at 5 WAT. The BIOX-CM treatment was applied at 4 and 5 WAT. The working water volume was 60 gal/acre and a non-ionic surfactant (Ad-Spray 80) was added in the amount of 2 pints/100 gal water. All plots were sprayed with sprayers pressurized at 25 psi and the canopies of both crops were covered with the micronutrient solutions. Treated plots were isolated during foliar fertilizer application to avoid the cross-contamination of other treatments on adjoining plots.
(§5) Leaf samples were collected from the most recent mature leaves from each plant at 6 WAT (2 weeks after initial treatment). Foliar tissue analysis was performed by a commercial laboratory to determine the concentration of N, P, K, Mg, Ca, B, Zn, Mn, Fe, and Cu. Tomato marketable fruit weights were collected at 10 and 12 WAT, and the fruits were graded according to USDA standards. Pepper marketable fruit weights were determined beginning at 5 WAT over 5 weekly harvests. Fruit mineral analysis (N, P, K, Mg, Ca, B, Zn, Mn, Fe, and Cu) was performed on samples from the tomato harvest.
(§6) The experimental design was a randomized complete block design with 5 replications for each treatment. All comparison data were analyzed using a general linear model and the means of each treatment were separated with a Fisher's protected LSD test at the 5% significance level.

[3] = system: Patriot bell pepper plants; assay: Foliar nutrient concentration at 6 WAT, open-field bell pepper (Examples 7-10)
Procedure: as §1, §2, §3, §4, §5, §6

Florida-47 tomato = system: Florida-47 tomato
Procedure: (§7) The following experiments were performed in a green house during the fall of 2007 at GCREC, Balm, University of Florida. Fifteen products, at 3 different application rates were examined. The plot size was 2-gallon pots. Crop set-up, procedures and variables were as follows.
(§8) Transplants of ‘Florida-47’ tomato and ‘Aristotle’ bell pepper plants in the 4-true leaf stage (about 6 inches tall) were planted in 2-gal pots on Aug. 27, 2007. Pots were filled with a commercially available planting medium. This medium was selected based on the mineral composition of the products to be applied without providing significant nutritional inputs to the crops. Irrigation was provided with drip lines delivering between 0.50 and 0.33 gal/day/pot for tomato and bell pepper, respectively, and the crops were irrigated three times per day. No foliar pesticides were necessary.
(§9) There were four control treatments corresponding to each target micronutrient in which non-Fe, non-Mn, non-Zn or non-Cu pots received all other essential nutrients under non-limiting conditions.
(§10) Treatments were applied at three rates (high, medium and low) obtained from the estimated concentration of Zn, Fe, Cu, and Mn foliarly-applied in tomato and bell pepper in field situations (Table 1). Products were weighed and dissolved in 200 ml of deionized water with a non-ionic surfactant and applied to the newly-matured open leaves of each crop at 3 and 7 weeks after transplant (WAT). Treated pots were isolated during application to avoid cross-contamination of other treatments.
(§11) Medium nutrient concentration was determined 1 week before treatment. The mineral composition of the medium was 26.8 ppm NH4—N, 49 ppm NO3—N, 15.8 ppm P, 91.2 ppm K, 82.3 ppm Ca, 58.2 ppm Mg, 23.9 ppm Na, 125.6 ppm S, 1.33 ppm Fe, 0.39 ppm Mn, 0.35 ppm Zn, 0.05 pp, Cu, 0.04 ppm B, 0 ppm Mo, 0.73 ppm Al, and 12.1 ppm Si. The pH of the medium was 5.36 and the electric conductivity was 1.38 mS/cm. The foliar tissue analysis was performed at 6 WAT and the concentration of N, P, K, Mg, Ca, S, B, Zn, Mn, Fe, and Cu was determined by a commercial laboratory. Plant toxicity was determined at 4 WAT by using a 0-10 visual scale, where 0=no visible damage and 10=total plant death. Marketable fruit weight was collected 2 times in bell pepper and 4 times in tomato following USDA standards.
(§12) Data were analyzed using a general linear model, and means were separated using orthogonal contrasts at the 5% significance level.

Aristotle bell pepper = system: Aristotle bell pepper
Procedure: as §7, §8, §9, §10, §11, §12

Tygress tomato plants [4] = assay: Yields of tomato fruits, greenhouse (Examples 4-6)
Procedure: (§13) The following experiments were performed in a green house during the fall of 2008 and spring of 2009 at GCREC, Balm, University of Florida. Crop set-up, procedures and variables were as follows.
(§14) Transplants of Tygress' tomato plants were planted in 2-gallon pots filled with commercial planting medium with nutrient concentration of Fe, Zn, Mn, Cu being negligible and insufficient for crop growth. Irrigation and non-micronutrient fertilizer were provided daily through microsprinklers at recommended rates for tomato production in Florida. No pesticides were used. Treatments were as described in Tables 4, 5 and 6 below.
(§15) Treatments were applied at 5 WAT (weeks after transplanting) using a water volume of 200 mL/plant. A non-ionic surfactant was added. Foliar tissue analysis was performed at 3 and 7 WAT on the non-applied newest leaves. The concentrations of N, P, K, Mg, Ca, B, Zn, Mn, Fe, and Cu in the foliar tissue were determined from foliar analysis by a commercial laboratory at 2 weeks before treatment and again at 2 weeks after treatment.
(§16) Deionized water was used for foliar applications, and other nutrients were applied as appropriate under non-limiting conditions. Marketable fruit were collected three times during the growing season, starting at 10 WAT (5 weeks after the initial treatment). Tomato fruit was graded as extra-large, large and medium. Non-marketable fruit were harvested and number and weight recorded but not sized.
(§17) Experimental design was a randomized complete block design with 6 replications. Data were analyzed using a general linear model, and means were separated using an LSD test at the 5% significance level.

Tygress tomato plants [5] = assay: Nutrient concentration of tomato fruits at 10 WAT, open field (Examples 7-10)
Procedure: as §1, §2, §3, §4, §5, §6

[6] = system: Patriot bell pepper plants; assay: Marketable yield, open-field bell pepper (Examples 7-10)
Procedure: as §1, §2, §3, §4, §5, §6

Tygress tomato plants [7] = assay: Foliar nutrient concentration 2 weeks after treatment, greenhouse tomato (Examples 4-6)
Procedure: as §13, §14, §15, §16, §17

O=S(=O)([O-])[O-].[Zn+2] [BIOX-INZ, zinc sulfate]
Foliar B concentration of tomato plants (Tygress tomato plants [1]): 41 ppm | Foliar Cu concentration of tomato plants (Tygress tomato plants [1]): 358 ppm | Foliar Fe concentration of tomato plants (Tygress tomato plants [1]): 71 ppm | Foliar K concentration of tomato plants (Tygress tomato plants [1]): 5.7% | Foliar Mg concentration of tomato plants (Tygress tomato plants [1]): 0.58% | Foliar Mn concentration of tomato plants (Tygress tomato plants [1]): 231 ppm | Foliar N concentration of tomato plants (Tygress tomato plants [1]): 4.8% | Foliar P concentration of tomato plants (Tygress tomato plants [1]): 0.18% | Foliar Zn concentration of tomato plants (Tygress tomato plants [1]): 323 ab ppm | Foliar Zn concentration of tomato plants, statement (Tygress tomato plants [1]): highest foliar concentration of Zn | Marketable yield, Tomato (Tygress tomato plants [2]): 15.6 ton/acre | Foliar B concentration of bell pepper plants [3]: 57 ppm | Foliar Cu concentration of bell pepper plants [3]: 385 ppm | Foliar Fe concentration of bell pepper plants [3]: 116 ppm | Foliar K concentration of bell pepper plants [3]: 3.2% | Foliar Mg concentration of bell pepper plants [3]: 0.53% | Foliar Mn concentration of bell pepper plants [3]: 303 ppm | Foliar N concentration of bell pepper plants [3]: 3.9% | Foliar P concentration of bell pepper plants [3]: 0.22% | Foliar Zn concentration of bell pepper plants [3]: 64 b ppm | Tomato toxicity (Florida-47 tomato): 0 | Pepper toxicity (Aristotle bell pepper): 0 | Marketable yield (Tygress tomato plants [4]): 3.7 a lb/plant | B concentration of tomato fruits (Tygress tomato plants [5]): 21 ppm | Cu concentration of tomato fruits (Tygress tomato plants [5]): 21 ppm | Fe concentration of tomato fruits (Tygress tomato plants [5]): 85 ppm | K concentration of tomato fruits (Tygress tomato plants [5]): 7.5% | Mg concentration of tomato fruits (Tygress tomato plants [5]): 0.34% | Mn concentration of tomato fruits (Tygress tomato plants [5]): 38 ppm | N concentration of tomato fruits (Tygress tomato plants [5]): 4.2% | P concentration of tomato fruits (Tygress tomato plants [5]): 0.59% | Zn concentration of tomato fruits (Tygress tomato plants [5]): 496 ppm | Marketable yield, Bell Pepper [6]: 6.9 ton/acre | B concentration in tomato leaves (Tygress tomato plants [7]): 24 ppm | Cu concentration in tomato leaves (Tygress tomato plants [7]): 5 ppm | Fe concentration in tomato leaves (Tygress tomato plants [7]): 97 ppm | Foliar Zn concentration (Tygress tomato plants [7]): 768 a ppm | K concentration in tomato leaves (Tygress tomato plants [7]): 3.5% | Mg concentration in tomato leaves (Tygress tomato plants [7]): 0.3% | Mn concentration in tomato leaves (Tygress tomato plants [7]): 55 ppm | N concentration in tomato leaves (Tygress tomato plants [7]): 3.6% | P concentration in tomato leaves (Tygress tomato plants [7]): 0.4%
